# Assay results from patent publication US7531509B2, “Papillosin antimicrobial peptide, a gene coding said peptide, a vector, a transformed organism and a compound containing said organism” (Centre National de la Recherche Scientifique—CNRS, priority 2003, dated 2009).
# No end group written: not given here.
# Experiments:
# [1] = system: gram-positive and gram-negative bacteria; test: Spectrum of antibacterial activity (summary); format: cell-based; conditions: on gram-positive and gram-negative bacteria
# Procedure: (§1) Complementary tests were carried out to determine the spectrum of activity of papillosin. The minimal bactericidal concentration (MBC) for each bacterial strain tested is determined as follows: The peptide is placed in a solution containing 0.01% acetic acid and 0.2% bovine serum albumin (BSA), then, serial dilutions of 2 2 are realized in the same 0.01% solution of acetic acid and 0.2% BSA. 10 μl of each dilution are incubated in sterile 96-well plates (Becton Dickinson, USA, ref: 18572) in the presence of 100 μl of a bacterial suspension brought to an optical density of 0.001 at 600 nm in the Mueller Hinton environment (MLHB, SIGMA, ref: M-9677).
# (§2) The bacterial growth is monitored after 18 hours of incubation under agitation. The MBC is determined by spreading out the content of the first three wells in which no bacterial growth was observed. This spreading out was carried out on Petri dishes on which an agar was poured prepared from the Mueller Hinton environment. These dishes were then incubated 18 hours. The MBC corresponds to the lowest concentration of peptide for which no bacterial colony was observed on the incubated dishes.
# [2] = system: M. luteus; format: cell-based; conditions: 18 h
# Procedure: as §1, §2
sequence,measurement,setting,value
GFWKKVGSAAWGGVKAAAKGAAVGGLNALAKHIQ [papillosin],bacteriolytic activity,[1],powerful bacteriolytic activity
same,MBC,[2],0.125 to 0.25 µM
